Reference: ChEMBL document CHEMBL6182945, “MMAE-Based Peptide-Drug Conjugates Targeting GPC3 for Precision Chemoradiotherapy in Hepatocellular Carcinoma” (J Med Chem, 2025)
Activity calls are given as the source filed them. The rule behind the calls is not given here.

Columns and labels:
Huh-7 [1] = assay: In vivo antitumor activity against human Huh-7 cells xenografted in female BALB/c mouse assessed as reduction in Ki67 expression in tumor at 2 mg/kg, iv total 4 doses measured on day 17 relative to control; type: functional, organism-based; conditions: time 17.0 day
Hep 3B2 [2] = assay: Cell cycle arrest in human Hep3B cells assessed as accumulation of cells at G0/G1 phase at 10 nM measured after 24 hrs incubation by PI staining based flow cytometry (reference value: 48%); type: functional
Hep 3B2 [3] = assay: Cell cycle arrest in human Hep3B cells assessed as accumulation of cells at G2/M phase at 10 nM measured after 24 hrs incubation by PI staining based flow cytometry (reference value: 23%); type: functional
Hep 3B2 [4] = assay: Cell cycle arrest in human Hep3B cells assessed as accumulation of cells at S phase at 10 nM measured after 24 hrs incubation by PI staining based flow cytometry (reference value: 28.91%); type: functional
Hep 3B2 [5] = assay: Cell cycle arrest in human Hep3B cells assessed as accumulation of cells at G0/G1 phase at 30 nM measured after 24 hrs incubation by PI staining based flow cytometry (reference value: 48%); type: functional
Hep 3B2 [6] = assay: Cell cycle arrest in human Hep3B cells assessed as accumulation of cells at S phase at 30 nM measured after 24 hrs incubation by PI staining based flow cytometry (reference value: 28.91%); type: functional
Huh-7 [7] = assay: Cell cycle arrest in human Huh-7 cells assessed as accumulation of cells at G0/G1 phase at 10 nM measured after 24 hrs incubation by PI staining based flow cytometry (reference value: 47.97%); type: functional
Huh-7 [8] = assay: Cell cycle arrest in human Huh-7 cells assessed as accumulation of cells at G2/M phase at 10 nM measured after 24 hrs incubation by PI staining based flow cytometry (reference value: 18.88%); type: functional
Huh-7 [9] = assay: Cell cycle arrest in human Huh-7 cells assessed as accumulation of cells at G0/G1 phase at 30 nM measured after 24 hrs incubation by PI staining based flow cytometry (reference value: 47.97%); type: functional
Huh-7 [10] = assay: Cell cycle arrest in human Huh-7 cells assessed as accumulation of cells at G2/M phase at 30 nM measured after 24 hrs incubation by PI staining based flow cytometry (reference value: 18.88%); type: functional
Huh-7 [11] = assay: Cell cycle arrest in human Huh-7 cells assessed as accumulation of cells at G2/M phase at 100 nM measured after 24 hrs incubation by PI staining based flow cytometry (reference value: 18.88%); type: functional
Huh-7 [12] = assay: Cell cycle arrest in human Huh-7 cells assessed as accumulation of cells at S phase at 100 nM measured after 24 hrs incubation by PI staining based flow cytometry (reference value: 33.15%); type: functional
LX-2 [13] = assay: Cell cycle arrest in human LX-2 cells assessed as accumulation of cells at G2/M phase at 30 nM measured after 24 hrs incubation by PI staining based flow cytometry (reference value: 14.65%); type: functional
LX-2 [14] = assay: Cell cycle arrest in human LX-2 cells assessed as accumulation of cells at G2/M phase at 100 nM measured after 24 hrs incubation by PI staining based flow cytometry (reference value: 14.65%); type: functional
LX-2 [15] = assay: Cell cycle arrest in human LX-2 cells assessed as accumulation of cells at S phase at 100 nM measured after 24 hrs incubation by PI staining based flow cytometry (reference value: 36.93%); type: functional
Huh-7 [16] = assay: Cell cycle arrest in human Huh-7 cells assessed as accumulation of cells at G0/G1 phase at 50 nM measured after 18 hrs incubation by PI staining based flow cytometry (reference value: 44.20%); type: functional
Huh-7 [17] = assay: Cell cycle arrest in human Huh-7 cells assessed as accumulation of cells at S phase at 50 nM measured after 18 hrs incubation by PI staining based flow cytometry (reference value: 37.30%); type: functional
Huh-7 [18] = assay: Cell cycle arrest in human Huh-7 cells assessed as accumulation of cells at G0/G1 phase at 50 nM measured after 24 hrs incubation by PI staining based flow cytometry (reference value: 44.20%); type: functional
Huh-7 [19] = assay: Cell cycle arrest in human Huh-7 cells assessed as accumulation of cells at phase G2/M at 50 nM measured after 24 hrs incubation by PI staining based flow cytometry (reference value: 18.42%); type: functional
Huh-7 [20] = assay: Cell cycle arrest in human Huh-7 cells assessed as accumulation of cells at S phase at 50 nM measured after 24 hrs incubation by PI staining based flow cytometry (reference value: 37.30%); type: functional
Huh-7 [21] = assay: Cell cycle arrest in human Huh-7 cells assessed as accumulation of cells at G0/G1 phase at 50 nM measured after 30 hrs incubation by PI staining based flow cytometry (reference value: 44.20%); type: functional
Huh-7 [22] = assay: Cell cycle arrest in human Huh-7 cells assessed as accumulation of cells at S phase at 50 nM measured after 30 hrs incubation by PI staining based flow cytometry (reference value: 37.30%); type: functional
Huh-7 [23] = assay: Radiosensitivity in human Huh-7 cells assessed as […] pre-treated overnight at 10 nM followed by irradiated with 2 Gy and measured after 14 days post treatment by crystal staining based clonogenic assay relative to compound alone/irradiation alone; type: functional; conditions: time 14.0 day
Huh-7 [24] = assay: Induction of DNA damage in human irradiated Huh-7 cells assessed as increase in DNA double break by measuring gamma-H2AX foci formation at 100 nM measured after 24 hrs by immunostaining assay relative to compound alone/irradiation alone; type: functional, cell-based
Huh-7 [25] = assay: Induction of DNA damage in human irradiated Huh-7 cells assessed as increase in DNA double break by measuring number of gamma-H2AX foci formation at 100 nM measured after 24 hrs by immunostaining assay (reference value: 6 +/- 2 foci); type: functional
Huh-7 [26] = assay: Induction of radiation induced gamma-H2AX phosphorylation in human irradiated Huh-7 cells at 100 nM measured after 24 hrs by Western blot analysis; type: functional, cell-based
Huh-7 [27] = assay: Decrease in CDC25C expression in human irradiated Huh-7 cells at 100 nM measured after 24 hrs by Western blot analysis; type: functional, cell-based
Huh-7 [28] = assay: Decrease in CDK1 expression in human irradiated Huh-7 cells at 100 nM measured after 24 hrs by Western blot analysis relative to irradiation alone; type: functional, cell-based
Huh-7 [29] = assay: In vivo apoptotic activity against human Huh-7 cells xenografted in female BALB/c mouse assessed as tumor apoptosis at 2 mg/kg, iv total 4 doses measured on day 17 relative to control by TUNEL assay; type: functional, organism-based; conditions: time 17.0 day
Huh-7 [30] = assay: In vivo antitumor activity against human Huh-7 cells xenografted in female BALB/c mouse assessed as delay in tumor growth at 1 mg/kg, iv followed by irradiated with 2 Gy for 2 consecutive days, once a week for 3 weeks measured on day 22; type: functional, organism-based; conditions: time 22.0 day
Huh-7 [31] = assay: In vivo antitumor activity against human Huh-7 cells xenografted in female BALB/c mouse assessed as delay in tumor growth at 1 mg/kg, iv for 2 consecutive days, once a week for 3 weeks measured on day 22; type: functional, organism-based; conditions: time 22.0 day
Huh-7 [32] = assay: In vivo antitumor activity against human Huh-7 cells xenografted in female BALB/c mouse assessed as gamma-H2AX positive cells at 1 mg/kg, iv followed by irradiated with 2 Gy for 2 consecutive days, once a week for 3 weeks measured on day 22; type: functional, organism-based; conditions: time 22.0 day

CC[C@H](C)[C@@H]([C@@H](CC(=O)N1CCC[C@H]1[C@H](OC)[C@@H](C)C(=O)N[C@H](C)[C@@H](O)c1ccccc1)OC)N(C)C(=O)[C@@H](NC(=O)[C@H](C(C)C)N(C)C(=O)OCc1ccc(NC(=O)[C@H](CCCNC(N)=O)NC(=O)[C@@H](NC(=O)CCCCCN2C(=O)CC(SC[C@H](N)C(=O)N[C@@H](CO)C(=O)N[C@@H](CC(N)=O)C(=O)N[C@@H](CC(=O)O)C(=O)N[C@@H](CCCNC(=N)N)C(=O)N3CCC[C@@H]3C(=O)N3CCC[C@@H]3C(=O)N[C@@H](CC(N)=O)C(=O)N[C@H](C(=O)N[C@@H](CC(C)C)C(=O)N[C@@H](CCC(N)=O)C(=O)N[C@@H](CCCCN)C(=O)N[C@@H](CCCNC(=N)N)C(N)=O)[C@@H](C)CC)C2=O)C(C)C)cc1)C(C)C (some centres not stated)
Activity (Huh-7 [1]): Active | Activity (Hep 3B2 [2]): 41.26% | Activity (Hep 3B2 [3]): 39.22% | Activity (Hep 3B2 [4]): 19.52% | Activity (Hep 3B2 [5]): 28.5% | Activity (Hep 3B2 [6]): 26.35% | Activity (Huh-7 [7]): 50.55% | Activity (Huh-7 [8]): 35.65% | Activity (Huh-7 [9]): 37.22% | Activity (Huh-7 [10]): 49.02% | Activity (Huh-7 [11]): 76.34% | Activity (Huh-7 [12]): 11.54% | Activity (LX-2 [13]): 15.25% | Activity (LX-2 [14]): 23.65% | Activity (LX-2 [15]): 37.25% | Activity (Huh-7 [16]): 31.13% | Activity (Huh-7 [17]): 24.32% | Activity (Huh-7 [18]): 28.27% | Activity (Huh-7 [19]): 56.79% | Activity (Huh-7 [20]): 14.94% | Activity (Huh-7 [21]): 31.74% | Activity (Huh-7 [22]): 13.43% | Activity (Huh-7 [23]): Active | Activity (Huh-7 [24]): Active | Activity (Huh-7 [25]): 18 | Activity (Huh-7 [26]): Active | Activity (Huh-7 [27]): Active | Activity (Huh-7 [28]): Active | Activity (Huh-7 [29]): Active | Activity (Huh-7 [30]): Active | Activity (Huh-7 [31]): Active | Activity (Huh-7 [32]): Active
